Literature values, collected in patent publication US20180333352A1, “TOPICAL FORMULATIONS AND USES THEREOF” (SUN PHARMA GLOBAL FZE, priority 2015, published 2018).

Key:
IFNγ, TNFα, IL-2 = conditions: in vitro
[1] = tested on: T-cell adhesion to ICAM-1 expressing cells; conditions: in vitro

Compound | Solubility in ethyl alcohol and methyl alcohol (ethyl alcohol, methyl alcohol) | Solubility in water (water) | Secretion of key inflammatory cytokines (IFNγ, TNFα, IL-2) (IFNγ, TNFα, IL-2) | T-cell adhesion to ICAM-1 expressing cells [1]
CCNC(=O)CCC/C=C\C[C@@H]1[C@@H](/C=C/[C@@H](O)CCc2ccccc2)[C@H](O)C[C@@H]1O [Bimatoprost, (Z)-7-[(1R,2R,3R,5 S)-3,5-Dihydroxy-2 [(1E,3S)-3-hydroxy-5-phenyl-1-pentenyl]cyclopentyl]-5-N-ethylheptenamide] | very soluble | only slightly soluble | – | –
CS(=O)(=O)c1cccc(C[C@H](NC(=O)c2c(Cl)cc3c(c2Cl)CCN(C(=O)c2ccc4ccoc4c2)C3)C(=O)O)c1 [lifitegrast] | – | – | inhibits | inhibits
